Earlier results, collected in patent US20040110774A1, “Methods and formulations of using A1 adenosine receptor antagonists and P2x purinoceptor antagonists for the treatment and prevention of immune system disorders” (priority 2001, published 2004).

Key:
A1 adenosine receptor = biological target: T1, A1 adenosine receptor (Homo sapiens, UniProt P30542); conditions: in tissues
T1 sequence (P30542 1-326): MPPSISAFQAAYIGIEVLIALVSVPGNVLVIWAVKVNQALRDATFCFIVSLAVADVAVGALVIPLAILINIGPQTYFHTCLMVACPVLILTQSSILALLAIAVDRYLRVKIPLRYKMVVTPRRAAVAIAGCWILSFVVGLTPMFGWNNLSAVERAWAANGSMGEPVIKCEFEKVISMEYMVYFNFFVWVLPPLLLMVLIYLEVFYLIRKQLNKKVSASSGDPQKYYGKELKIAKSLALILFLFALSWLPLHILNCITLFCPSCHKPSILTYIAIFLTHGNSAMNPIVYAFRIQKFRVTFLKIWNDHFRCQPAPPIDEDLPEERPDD

RAW 264.7 macrophages = conditions: LPS-stimulated RAW 264.7 macrophages

Compound: CCCn1c(=O)c2[nH]c(C3CCCC3)nc2n(CCC)c1=O [DPCPX, 1,3-dipropyl-8-cyclopentylxanthine]
- nonspecific binding (A1 adenosine receptor): less than 1%

Compound: Cc1nc(N=Nc2ccc(S(=O)(=O)O)cc2S(=O)(=O)O)c(COP(=O)(O)O)c(C=O)c1O [PPADS, pyridoxal-phosphate-6-azophenyl-2′,4′-disulphonic acid]
- effect of LPS on the expression of iNOS (iNOS): prevent the effect of LPS on the expression of iNOS

Compound: Nc1ncnc2c1ncn2[C@@H](C=O)O[C@@H](C=O)COP(=O)(O)OP(=O)(O)OP(=O)(O)O [o-ATP, Periodate oxidized adenosine 5′-triphosphate]
- NF-kappa-B-like binding activity (RAW 264.7 macrophages): inhibit NF-kappa-B-like binding activity
- effects of LPS on nitric oxide (NO) production (RAW 264.7 macrophages): inhibit the effects of LPS on nitric oxide (NO) production
- expression of inducible nitric oxide synthase (iNOS) (RAW 264.7 macrophages): inhibit the expression of inducible nitric oxide synthase (iNOS)
